According to patent US20230285347A1, “Preterm Labour with Prostaglandin E2 Receptor Agonists” (IMPERIAL COLLEGE INNOVATIONS LIMITED, priority 2020, published 2023):
Entries after “also recorded” stand apart in the source; their conditions may differ.

Experiments:
Type in all cases: cell-based
human FLAG-tagged EP2 = molecular target: T1, human FLAG-tagged EP2 (Homo sapiens, UniProt P43116); experiment: cAMP induction in HEK 293 cells stably expressing EP2 (Gαs readout); details: for cAMP efficacy at the maximal dose of each ligand: HEK 293 EP2 cells, 5 minutes of stimulation, no significant difference between ligands, FIG. 2
T1 construct: FLAG; expressed in transfected cells
Procedure: EP2 is a dually coupled GPCR capable of activating downstream signalling pathways via Gαs (anti-labour inducing) and Gαq/11 (pro-labour inducing).
HEK 293 cells were maintained in DMEM (Dulbecco's Modified Eagle Medium) containing 10% fetal bovine serum and 100 μ/ml penicillin-streptomycin, and cultured in 75 cm flasks at 37° C. in 95% air and 5% CO2. Cells at 95% confluency were passaged using 0.25% trypsin with 0.02% EDTA in phosphate-buffered saline (PBS).
Confluent myometrial cells were treated with/without OT (100 nM) for 1 hour before 3 PBS washes and the addition of […] IBMX (3-isobutyl-1-methylxanthine) in PBS for 5 minutes at 37° C. This was exchanged for 0.5 μM IBMX in PBS plus either DMSO, butaprost (10 μM), AH13205 (10 μM) or PGN9856i (100 nM) for […]. Cells were lysed in Cisbio cAMP lysis buffer with 0.2% TritonX-100 and centrifuged for 15 minutes at 16,000 g. Lysates were normalized to protein concentration determined by Coomassie (Bradford) Protein Assay Kit and analysed as per manufacturers' protocol (Cisbio Gαs dynamic assay) using a PHERAstar FSX.

human FLAG-EP2 [1] = molecular target: T2, human FLAG-EP2 (Homo sapiens, UniProt P43116); experiment: Intracellular Ca2+ release in HEK 293 cells stably expressing EP2 (Fluo-4, confocal; Gαq/11 readout); details: HEK 293 EP2 cells; butaprost 10 μM, AH13205 10 μM, PGN9856i 100 nM; vs vehicle; FIG. 3
T2 construct: FLAG; expressed in transfected cells
Procedure: To measure Gαq/11 activation, HEK 293 cells stably expressing human FLAG-EP2 were pre-labelled with a Ca2+ indicator dye and acutely stimulated with each ligand.
HEK 293 cells, prepared following the same methodology as outlined in Example 1, were seeded onto Mattek dishes with 14 mm by 1.5 mm glass coverslips. Cells were incubated with Fluo-4am Ca2+ indicator (ThermoFisher) as per manufacturer's instructions. […]. Time-series images were acquired using a Leica SP5 confocal microscope, Leica LAS AF image acquisition software and a 488 nm excitation laser. HEK cells were imaged using a 10× dry objective. EP2 agonists (butaprost 10 μM, AH13205 10 μM or PGN9856i 100 nM) were added following measurement of basal fluorescence. Raw files were analysed using Fiji Time series analyser plugin to find the maximal fluorescent intensity, which was then averaged across cells in each condition.
The maximal fluorescence intensity was measured by live confocal microscopy.

human FLAG-EP2 [2] = molecular target: T2, human FLAG-EP2; experiment: PGE2 release by ELISA in HEK 293 cells stably expressing EP2; details: HEK 293 EP2 cells; 6 hours; butaprost 10 μM, AH13205 10 μM, PGN9856i 100 nM; FIG. 4
Procedure: COX-2 is an inflammatory mediator that drives PGE2 production. The inventors had previously shown EP2-dependent COX-2 release to be downstream of Ca2+ release in primary human myometrium and that 6-hour agonist treatment is necessary for increasing COX-2 levels and PGE2 secretion (Kandola et al, 2014). HEK 293 cells stably expressing human FLAG-EP2 were stimulated for 6 hours with an EP2 agonist (butaprost 10 μM, AH13205 10 μM or PGN9856i 100 nM) or DMSO. 1 mL media was collected from COX-2 experiments and immediately frozen at −80 degrees Celsius. […]

EP2 = molecular target: T3, EP2 (Homo sapiens, UniProt P43116); experiment: PGE2 release by ELISA in primary myometrial cells; details: 6 hours, butaprost 10 μM, PGN9856i 100 nM, without OT, FIG. 7, FIG. 12
T3 construct: primary human myocytes cultured from term pregnant, non-labouring, myometrium; endogenous in cells; host or cells: primary human myometrial cells (myocytes) cultured from pregnant myometrium
From the text: Tissue culture media collected and used for ELISA. Data shown as mean±SEM from at least 3 independent experiments. One-way ANOVA with Dunnet's multiple comparison post-hoc test: *p<0.05, **p<0.01. PGN9856i is unable to elicit PGE2 release in primary myometrial cells.
In the myometrium EP2 is an important regulator of parturition. To assess if PGN9856i, butaprost and AH13205 induce similar second messenger profiles in the myometrium as HEK 293 cells, primary human myocytes cultured from term pregnant, non-labouring, myometrium, were treated with each ligand and intracellular cAMP, calcium and PGE2 release was measured.
Myometrial tissue was acquired at St. Mary's hospital, Queen Charlotte and Chelsea hospital and Charing Cross hospital, London. Tissue was obtained from women provided with informed written consent with the approval from the Riverside Research Ethics Committee (RREC 3357, 1997-5089, 19/LO/1657) and experiments were carried out under the committee's guidelines and recommendations. […]
Myometrial cells were treated for 6-hours with EP2 agonist (butaprost 10 μM, AH13205 10 μM or PGN9856i 100 nM) or DMSO with/without 1-hour OT (100 nM) pre-treatment. […] Samples were defrosted at room temperature and vortexed before quantification of IL-6 concentrations via ELISA as per manufacturer's instructions (Enzo Lifesciences).

T3 sequence (P43116 whole entry): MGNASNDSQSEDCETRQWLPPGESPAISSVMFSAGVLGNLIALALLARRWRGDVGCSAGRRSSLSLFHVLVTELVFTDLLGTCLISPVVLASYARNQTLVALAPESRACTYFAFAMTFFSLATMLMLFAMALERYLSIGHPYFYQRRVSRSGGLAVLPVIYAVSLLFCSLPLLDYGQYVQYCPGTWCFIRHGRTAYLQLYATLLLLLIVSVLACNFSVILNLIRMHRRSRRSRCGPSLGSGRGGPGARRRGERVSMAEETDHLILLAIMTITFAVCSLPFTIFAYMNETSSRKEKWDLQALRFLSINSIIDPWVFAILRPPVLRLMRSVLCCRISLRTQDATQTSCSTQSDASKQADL
T1 sequence (P43116 whole entry): as above
T2 sequence (P43116 whole entry): as above

| Compound | cAMP efficacy at the maximal dose of each ligand (human FLAG-tagged EP2) | intracellular Ca2+ release (maximal fluorescence intensity) (human FLAG-EP2 [1]) | PGE2 levels (human FLAG-EP2 [2]) | PGE2 release (EP2) | EC50 for EP2 agonist-mediated induction of cAMP (relative potency) (human FLAG-tagged EP2; HEK 293 cells stably expressing human FLAG-tagged EP2, dose-response curves, FIG. 1) |
| --- | --- | --- | --- | --- | --- |
| CCCC1([C@H](O)C/C=C/[C@H]2[C@H](O)CC(=O)[C@@H]2CCCCCCC(=O)OC)CCC1 [butaprost] | equally efficacious | enhanced Ca2+ significantly above vehicle | efficacious activators of the pathway | significantly enhanced PGE2 release |  |
| CC(C)OC(=O)COc1cccc(NC(=O)c2cc(-c3cccc(F)c3)ccc2F)c1 [PGN9856i, propan-2-yl 2-(3-{3′,4-difluoro-[1,1′-biphenyl]-3-amido}phenoxy)acetate] | equally efficacious | unable to elicit intracellular Ca2+ release | unable to increase PGE2 levels over basal levels | unable to activate; also recorded: unable to cause PGE2 release | greatest potency, by three orders of magnitude |
